In patent US6518480B1 (priority 1996, dated 2003):

Tests used:
OR2 [1] = target: OR2 (Homo sapiens, UniProt P41145, G198V/DELINS201-226[…]/E297Q, form not given); assay type: cell-based; settings: read-out: EC50, signaling by OR2; signaling by OR2
OR2 [2] = assay type: cell-based, human
OR2 [3] = assay type: binding, human
Wild-type KOR [4] = target: T1, Wild-type KOR (Homo sapiens, UniProt P41145); assay: Signaling (activation of G protein-mediated signals, adenylyl cyclase inhibition) by wild-type KOR; assay type: cell-based
T1 construct: expressed in transfected cells; host or cells: COS-7 and CHO-KI (for OR1 and OR2)
T1 sequence (P41145 whole entry): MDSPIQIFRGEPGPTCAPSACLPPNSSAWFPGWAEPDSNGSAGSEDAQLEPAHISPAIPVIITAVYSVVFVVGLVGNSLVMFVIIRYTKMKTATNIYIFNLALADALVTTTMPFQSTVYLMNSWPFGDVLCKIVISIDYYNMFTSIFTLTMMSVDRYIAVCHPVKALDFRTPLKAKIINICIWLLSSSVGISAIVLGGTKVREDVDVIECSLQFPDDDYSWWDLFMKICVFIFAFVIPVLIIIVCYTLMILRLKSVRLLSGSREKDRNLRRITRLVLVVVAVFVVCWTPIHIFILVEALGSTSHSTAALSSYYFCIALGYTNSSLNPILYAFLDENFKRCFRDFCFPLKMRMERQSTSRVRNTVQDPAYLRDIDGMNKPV

OR1 [5] = assay type: binding, human
Wild-type KOR [6] = target: T1, Wild-type KOR; assay: biochemical; assay type: binding
OR1 [7] = target: OR1 (Homo sapiens, UniProt P41145, G198V/DELINS201-226[…], form not given); assay: Signaling (activation of G protein-mediated signals, adenylyl cyclase inhibition) by OR1; assay type: cell-based
Sequence of OR1 (Homo sapiens, UniProt P41145, G198V/DELINS201-226[…], form not given) (P41145 with tags, fused parts or gaps DELINS198-226[withheld], form open): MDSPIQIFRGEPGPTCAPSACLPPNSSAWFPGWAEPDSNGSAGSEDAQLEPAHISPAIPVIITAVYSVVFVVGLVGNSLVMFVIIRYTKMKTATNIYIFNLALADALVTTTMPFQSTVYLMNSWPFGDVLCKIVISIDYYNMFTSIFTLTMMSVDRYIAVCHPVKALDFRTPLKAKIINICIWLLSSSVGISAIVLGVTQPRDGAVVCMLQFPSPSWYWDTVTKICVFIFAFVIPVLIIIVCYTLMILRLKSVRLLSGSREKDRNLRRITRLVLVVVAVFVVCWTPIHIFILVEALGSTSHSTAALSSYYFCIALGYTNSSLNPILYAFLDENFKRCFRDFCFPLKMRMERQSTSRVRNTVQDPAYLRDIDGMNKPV

OR1 [8] = assay: as above; assay type: cell-based, human; settings: relative to signal detected with wild-type KOR
[9] = relative to signal detected with wild-type KOR

Sequence of OR2 (Homo sapiens, UniProt P41145, G198V/DELINS201-226[…]/E297Q, form not given) (P41145 with tags, fused parts or gaps DELINS198-226[withheld]/E297Q, form open): as the sequence (P41145 with tags, fused parts or gaps DELINS198-226[withheld], form open) above, with E294Q counted along it

In the case of `CCC12CCN(CC3(O)CC3)C(Cc3ccc(O)cc31)C2(C)C` (stereo not drawn) [Bremazocine, bremazocine], the EC50 (OR2 [1]) is reported as 0.34 nM, the “Fold decrease in signaling, OR2” value (OR2 [2]; [9]) is reported as 5.17 fold and the “Biochemical Signal, decrease (summary), OR2” value (OR2 [2]; summary table, ↓ = decrease versus wild-type KOR) is reported as “↓5x”. For the same compound, the “Amount of ligand required to activate the biochemical signal at OR2 compared to wild-type KOR” value (OR2 [2]; times more ligand than for wild type KOR) was “about 5 times”, the “Change in binding affinity of OR2 relative to native human KOR” value (OR2 [3]) was “no change” and the “Fold decrease in binding, OR2” value (OR2 [3]) was 1.2 fold. For the same compound, the EC50 (Wild-type KOR [4]) was 0.067 nM, the “Fold decrease in signaling, Wild-type KOR” value (Wild-type KOR [4]; [9]) was 1 fold and the “Change in binding affinity of OR1 relative to native human KOR” value (OR1 [5]) was “no significant change”. For the same compound, the “Fold decrease in binding, OR1” value (OR1 [5]) was 1.7 fold, the “Fold decrease in binding, Wild-type KOR” value (Wild-type KOR [6]) was 1 fold and the Ki (Wild-type KOR [6]) was 0.038 nM. The “Inhibition of adenylyl cyclase by OR1 in response to ligand” value (OR1 [7]; dynorphin only at high concentrations) was “inhibits adenylyl cyclase”, the EC50 (OR1 [7]; read-out: EC50, signaling by OR1, signaling by OR1) was 0.068 nM and the “Fold decrease in signaling, OR1” value (OR1 [8]) was 1 fold.
